According to PubChem BioAssay AID1963445 (Molecular Pharmacology Branch, DTP, NCI, 2024):
Several values for one entry are separate records, joined by “and”; a condition that tells them apart may be missing. Identical values can stand only once.

System: MCF7 complex spheroid growth, % test/control
Assay: Anticancer human tumor MCF7 cell line growth inhibition [Asc];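 further: spheroids exposed to compounds for 7 days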;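 on viability, T/C: 100% = DMSO vehicle control wells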
Settings: for viability, T/C: stronger effect = lower value
Summary of the method: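 Tumor cells were grown as multicellular spheroids with stromal HUVEC and mesenchymal stem cells and treated singly or in combination. Concentrations fell in half-log steps from the clinical Cmax, or from 10 microM where none was known.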

For `C#Cc1c(F)ccc2cc(O)cc(-c3ncc4c(N5CC6CCC(C5)N6)nc(OCC56CCCN5CC(F)C6)nc4c3F)c12` (stereo unspecified) + CCN1C(C(=O)NC23CCC(C(=O)O)(CC2)CC3)C(c2cccc(Cl)c2F)C2(C(=O)Nc3cc(Cl)ccc32)C12CCCCC2, the IC50 (curve of first compound, second compound 0.00949 µM) was > 10000 nM, the IC50 (curve of first compound, second compound 0.03 µM) was > 10000 nM and the IC50 (curve of first compound, second compound 0.0949 µM) was 59.8 nM. The IC50 (curve of first compound, second compound 0.3 µM) was < 31.6 nM, the IC50 (curve of first compound, second compound 0.949 µM) was < 31.6 nM and the IC50 (curve of first compound, second compound 3 µM) was < 31.6 nM. It also gave a viability, T/C (second compound 0.00949 µM, first compound 0.0316 µM) of 92.6%, a viability, T/C (second compound 0.00949 µM, first compound 0.1 µM) of 114% and a viability, T/C (second compound 0.00949 µM, first compound 0.316 µM) of 111%. The viability, T/C (second compound 0.00949 µM, first compound 1 µM) was 102%, the viability, T/C (second compound 0.00949 µM, first compound 3.16 µM) was 107% and the viability, T/C (second compound 0.00949 µM, first compound 10 µM) was 76.4%. For the same compound, the viability, T/C (second compound 0.03 µM, first compound 0.0316 µM) was 100%, the viability, T/C (second compound 0.03 µM, first compound 0.1 µM) was 81.7% and the viability, T/C (second compound 0.03 µM, first compound 0.316 µM) was 91.8%. It also gave a viability, T/C (second compound 0.03 µM, first compound 1 µM) of 81.2%, a viability, T/C (second compound 0.03 µM, first compound 3.16 µM) of 102% and a viability, T/C (second compound 0.03 µM, first compound 10 µM) of 70.7%. It also gave a viability, T/C (second compound 0.0949 µM, first compound 0.0316 µM) of 47.6%, a viability, T/C (second compound 0.0949 µM, first compound 0.1 µM) of 60.5% and a viability, T/C (second compound 0.0949 µM, first compound 0.316 µM) of 36.4%. The viability, T/C (second compound 0.0949 µM, first compound 1 µM) was 42.2%, the viability, T/C (second compound 0.0949 µM, first compound 3.16 µM) was 47.8% and the viability, T/C (second compound 0.0949 µM, first compound 10 µM) was 32.9%. For the same compound, the viability, T/C (second compound 0.3 µM, first compound 0.0316 µM) was 27.1%, the viability, T/C (second compound 0.3 µM, first compound 0.1 µM) was 24.6% and the viability, T/C (second compound 0.3 µM, first compound 0.316 µM) was 28.6%. For the same compound, the viability, T/C (second compound 0.3 µM, first compound 1 µM) was 27.4%, the viability, T/C (second compound 0.3 µM, first compound 3.16 µM) was 23.5% and the viability, T/C (second compound 0.3 µM, first compound 10 µM) was 19.9%. The viability, T/C (second compound 0.949 µM, first compound 0.0316 µM) was 17.1%, the viability, T/C (second compound 0.949 µM, first compound 0.1 µM) was 19.2% and the viability, T/C (second compound 0.949 µM, first compound 0.316 µM) was 14.1%. The viability, T/C (second compound 0.949 µM, first compound 1 µM) was 17.8%, the viability, T/C (second compound 0.949 µM, first compound 3.16 µM) was 16.3% and the viability, T/C (second compound 0.949 µM, first compound 10 µM) was 10.8%. For the same compound, the viability, T/C (second compound 3 µM, first compound 0.0316 µM) was 12.8%, the viability, T/C (second compound 3 µM, first compound 0.1 µM) was 11.4% and the viability, T/C (second compound 3 µM, first compound 0.316 µM) was 11.5%. It also gave a viability, T/C (second compound 3 µM, first compound 1 µM) of 10.2%, a viability, T/C (second compound 3 µM, first compound 3.16 µM) of 14.1% and a viability, T/C (second compound 3 µM, first compound 10 µM) of 7.87%.

With `CCN1CCN(Cc2ccc(Nc3ncc(F)c(-c4cc(F)c5nc(C)n(C(C)C)c5c4)n3)nc2)CC1` + CNC(C)C(=O)NC1CN(S(=O)(=O)c2cccc(S(=O)(=O)N3CCC4CCC(C(=O)NC(c5ccccc5)c5ccccc5)N4C(=O)C(NC(=O)C(C)NC)C3)c2)CCC2CCC(C(=O)NC(c3ccccc3)c3ccccc3)N2C1=O the IC50 (curve of first compound, second compound 0.00316 µM) was < 3.16 nM, the IC50 (curve of first compound, second compound 0.01 µM) was < 3.16 nM and the IC50 (curve of first compound, second compound 0.0316 µM) was < 3.16 nM. For the same compound, the IC50 (curve of first compound, second compound 0.1 µM) was < 3.16 nM, the IC50 (curve of first compound, second compound 0.316 µM) was < 3.16 nM and the IC50 (curve of first compound, second compound 1 µM) was < 3.16 nM. The viability, T/C (second compound 0.00316 µM, first compound 0.00316 µM) was 30.3%, the viability, T/C (second compound 0.00316 µM, first compound 0.01 µM) was 32.9% and the viability, T/C (second compound 0.00316 µM, first compound 0.0316 µM) was 12.9%. For the same compound, the viability, T/C (second compound 0.00316 µM, first compound 0.1 µM) was 20.2%, the viability, T/C (second compound 0.00316 µM, first compound 0.316 µM) was 12.3% and the viability, T/C (second compound 0.00316 µM, first compound 1 µM) was 14.1%. It also gave a viability, T/C (second compound 0.01 µM, first compound 0.00316 µM) of 17.1%, a viability, T/C (second compound 0.01 µM, first compound 0.01 µM) of 10.8% and a viability, T/C (second compound 0.01 µM, first compound 0.0316 µM) of 10.1%. The viability, T/C (second compound 0.01 µM, first compound 0.1 µM) was 10.1%, the viability, T/C (second compound 0.01 µM, first compound 0.316 µM) was 10.5% and the viability, T/C (second compound 0.01 µM, first compound 1 µM) was 11.8%. The viability, T/C (second compound 0.0316 µM, first compound 0.00316 µM) was 14.4%, the viability, T/C (second compound 0.0316 µM, first compound 0.01 µM) was 9.49% and the viability, T/C (second compound 0.0316 µM, first compound 0.0316 µM) was 9.67%. It also gave a viability, T/C (second compound 0.0316 µM, first compound 0.1 µM) of 11.8%, a viability, T/C (second compound 0.0316 µM, first compound 0.316 µM) of 11.1% and a viability, T/C (second compound 0.0316 µM, first compound 1 µM) of 10.6%. The viability, T/C (second compound 0.1 µM, first compound 0.00316 µM) was 12.2%, the viability, T/C (second compound 0.1 µM, first compound 0.01 µM) was 10.9% and the viability, T/C (second compound 0.1 µM, first compound 0.0316 µM) was 10.2%. The viability, T/C (second compound 0.1 µM, first compound 0.1 µM) was 8.76%, the viability, T/C (second compound 0.1 µM, first compound 0.316 µM) was 11.4% and the viability, T/C (second compound 0.1 µM, first compound 1 µM) was 10%. The viability, T/C (second compound 0.316 µM, first compound 0.00316 µM) was 13.4%, the viability, T/C (second compound 0.316 µM, first compound 0.01 µM) was 13.1% and the viability, T/C (second compound 0.316 µM, first compound 0.0316 µM) was 13.2%. It also gave a viability, T/C (second compound 0.316 µM, first compound 0.1 µM) of 11.2%, a viability, T/C (second compound 0.316 µM, first compound 0.316 µM) of 8.8% and a viability, T/C (second compound 0.316 µM, first compound 1 µM) of 8.66%. It also gave a viability, T/C (second compound 1 µM, first compound 0.00316 µM) of 10.8%, a viability, T/C (second compound 1 µM, first compound 0.01 µM) of 12% and a viability, T/C (second compound 1 µM, first compound 0.0316 µM) of 11.3%. The viability, T/C (second compound 1 µM, first compound 0.1 µM) was 10.8%, the viability, T/C (second compound 1 µM, first compound 0.316 µM) was 10.7% and the viability, T/C (second compound 1 µM, first compound 1 µM) was 8.18%.

`COc1c(OCCCN2CCOCC2)ccc2c3n(c(=NC(=O)c4cnc(N)nc4)nc12)CCN3` was tested, and the viability, T/C (compound 0.00316 µM) was 79.3% and 87.5% and 83.6%, the viability, T/C (compound 0.01 µM) was 76.8% and 80.8% and 61.1% and the viability, T/C (compound 0.0316 µM) was 56.2% and 55.1% and 46.3%. For the same compound, the viability, T/C (compound 0.1 µM) was 29.5% and 33.3% and 43%, the viability, T/C (compound 0.316 µM) was 12.4% and 14.6% and 17.5% and the viability, T/C (compound 1 µM) was 8.01% and 9.89% and 10%. The IC50 (curve of compound) was 45 nM and 53.6 nM and 22.4 nM.
